Measurements published in US6875420B1, “Method of ultrasound imaging” (Amersham Health AS, priority 1991, dated 2005).
Where two headings read alike, the source gives them in different places.

Tests used:
[1] = cited from earlier work; for DENSITY: gas density; for SOLUBILITY: in water, fluorocarbons estimated by extrapolation relative to perfluoro-n-pentane; for boiling point: standard pressure conditions
[2] = Physical properties of gases: density, solubility in water, diffusivity, molar volume, boiling point; format: physicochemical; conditions: (*) estimated from the known density of homologous fluorocarbons
Description: Different methods for determining or estimating values for the individual parameters of density, diffusivity, and solubility may be needed depending on the chemical structure of the gas. Values for these parameters may or may not be available from known scientific literature sources such as the Gas Encyclopedia or the tabulations published by the American Chemical Society. Values for the density of most gases are readily available from sources such as the Handbook of Chemistry and Physics. […] Additionally, the solubility in water and molar volume of some gases has been measured with accuracy. In many cases however, calculations for the numerical values for molar volume and solubility may need to be calculated or estimated to provide the data used to determine the value of the Q coefficient for an individual gas by the method described above.
To determine the Q value for several gases, the solubility, molar volume and density of the individual gases are determined and the values are substituted into Equations (7) or (8) above.
This method for estimating the gas solubility of fluorocarbons uses extrapolation of the experimental data of Kabalnov AS, Makarov KN, and Scherbakova OV. […] For a homologous series of non-branched fluorocarbons, the gas solubility may be estimated by increasing or reducing this value by a factor of about 8.0 for each increase or reduction in the number of additional —CF2— groups present in the molecule.
The molar volume of a gas can be estimated by identifying the number and type of atoms that make up the molecule of gas in question. By determining the number and type of atoms present in the molecule and how the individual atoms are bound to each other, known values may be applied for the molecular volume of the individual atoms. By considering the contribution of each individual atom and its frequency of occurrence, one may calculate the total molar volume for a particular gas molecule.

[3] = Persistence of microbubbles in water at 37° C. observed by ultrasound scan; format: physicochemical
Description: The relationship between a calculated Q-value for a given gas and the persistence of microbubbles of that gas was studied to determine what Q-value would be a lower limit for utility as an ultrasound contrast agent. […] Five mL of a 20% sorbitol solution was taken up in a 10 mL syringe connected to a three way stopcock. A 10 mL syringe, containing 2 cubic centimeters of the subject gas (or low boiling liquid, as pertinent) was attached to the syringe containing the sorbitol solution. The sorbitol and gas or liquid are rapidly mixed 25-times to create a suspension of microbubbles or dispersed liquid and then rapidly added to the water. […] Ultrasound scans before, during and after the addition were made with a Hewlett-Packard Model Sonos 500 ultrasound scanner operating at 5 MHz. The time during which the microbubbles could be observed was recorded. […] The experimental Q-values were obtained by dividing the measured persistence of a given gas by the measured persistence for air.

[4] = about 100 micron microbubbles, 20% sorbitol, added to water at 37° C., 5 MHz ultrasound

Molecule	DENSITY [1]	SOLUBILITY [1]	further results
FC(F)(F)C(F)(F)C(F)(F)C(F)(F)F [Decafluorobutane]	11.21 kg/m3	32 µmol/L	–
FS(F)(F)(F)(F)F [Sulfur Hexafluoride]	5.48 kg/m3	–	–
FC(=C(F)C(F)(F)F)C(F)(F)F [Octafluoro-2-butene]	–	–	DENSITY [2]: 10 (*) kg/m3
FC(F)(F)C(F)(F)F [Hexafluoroethane]	8.86 kg/m3	–	–
[Kr] [Krypton]	3.8 kg/m3	–	–
CC [Ethane]	1.05 kg/m3	–	–
[Ne] [Neon]	0.90 kg/m3	434 µmol/L	–
Hexafluoropropane	10.3 kg/m3	–	–
[Xe] [Xenon]	5.90 kg/m3	–	–
CCCC [n-Butane]	2.05 kg/m3	6696 µmol/L	PERSISTENCE of microbubbles [3]: 1.5 min (2.6)
CCC [Propane]	2.02 kg/m3	–	PERSISTENCE of microbubbles [3, 4]: 3.2 min
FC(F)(F)C#CC(F)(F)F [Hexafluoro-2-butyne]	–	–	DENSITY [2]: 9 (*) kg/m3
FC1(F)C(F)(F)C(F)(F)C1(F)F [Octafluorocyclobutane]	9.97 kg/m3	220 µmol/L	–
O=C=O [Carbon Dioxide]	1.98 kg/m3	33000 µmol/L	–
FC(F)=C(F)C(F)=C(F)F [Hexafluorobuta-1,3-diene]	–	–	DENSITY [2]: 9 (*) kg/m3
FC(F)(F)C(F)(F)C(F)(F)C(F)(F)C(F)(F)F [Dodecafluoropentane]	12.86 kg/m3	–	PERSISTENCE of microbubbles [3, 4]: > 5760 min; water solubility [1]: 4.0×10^−6 moles per liter; boiling point [1]: 29.5 degrees Centigrade
[He] [Helium]	0.18 kg/m3	388 µmol/L	PERSISTENCE of microbubbles [3, 4]: 2.0 min
CCCCC [Pentane]	–	1674 µmol/L	PERSISTENCE of microbubbles [3, 4]: 20.6 min
[Ar] [Argon]	1.78 kg/m3	–	–
CCOCC [Ethyl ether]	2.55 kg/m3	977,058 micromoles/liter	PERSISTENCE of microbubbles [3, 4]: 0.1 min
FC(F)(F)C(F)(F)C(F)(F)F [Octafluoropropane]	10.3 kg/m3	260 µmol/L	–
FC(F)(F)C(F)(F)C(F)(F)C(F)(F)C(F)(F)C(F)(F)F [Perfluorohexane, reference compound]	–	–	boiling point [1]: 59-60 degrees Centigrade
